Experimental data reported in patent US11414450B1, “Aminoglycosides and uses thereof” (REVAGENIX, INC., priority 2017, dated 2022).
Values after ≈ are worked out from the molar mass of the structure shown.

Key:
[1] = system: E. coli isogenic strain empty vector; experiment: MIC broth microdilution, E. coli isogenic strain, empty vector; type: cell-based; details: for Geometric Mean MIC values, E. coli isogenic strains, empty vector: Table 2
Description: (§1) Minimum inhibitory concentrations for the example compounds herein are determined by the broth microdilution method in accordance with the Clinical and Laboratory Standards Institute (CLSI) guidelines. In brief, organism suspensions are adjusted to a 0.5 McFarland standard to yield a final inoculum between 3×10^5 and 7×10^5 colony-forming units (CFU)/mL. Compound dilutions and inocula are made in sterile, cation adjusted Mueller-Hinton Broth (Beckton Dickinson). The inoculum is prepared by suspension of a colony from an agar plate that is prepared the previous day. Bacteria are suspended in sterile saline and added to each assay plate to obtain a final concentration of 5×10^5 CFU/mL. An inoculum volume of 100 μL is added to wells containing 100 μL of broth with 2-fold serial dilutions of the compound. All inoculated microdilution trays are incubated in ambient air at 35° C. for 18-24 hours. Following incubation, the lowest concentration of the compound that prevents visible growth (OD 600 nm<0.05) is recorded as the MIC. […] Performance of the assay is monitored by the use of laboratory quality-control strains and a compound with a defined MIC spectrum (such as levofloxacin), in accordance with CLSI guidelines. Compounds are tested against multiple microbiologic panels. Panels include: 1) a multi-species primary screening panel that includes multiple defined AG-R mechanisms; 2) a panel of isogenic strains carrying different common mechanisms of AG-R that allows characterization of the SAR for AMEs, RMTs, and entry and efflux resistance mechanisms; and 3) panels of recent clinical isolates selected from Phase 3 studies and ongoing global surveillance.

[2] = system: E. coli isogenic strain nmpA; experiment: MIC broth microdilution, E. coli isogenic strain nmpA; type: cell-based; details: for Geometric Mean MIC values, E. coli isogenic strains, nmpA: Table 2
Description: as §1

E. coli ATCC 25922 = experiment: Minimum inhibitory concentration (broth microdilution, CLSI), E. coli ATCC 25922; type: cell-based
Description: as §1

[3] = system: E. coli isogenic strain aac(6′)-Ib; experiment: MIC broth microdilution, E. coli isogenic strain aac(6′)-Ib; type: cell-based; details: for Geometric Mean MIC values, E. coli isogenic strains, aac(6′)-Ib: Table 2
Description: as §1

[4] = system: E. coli isogenic strain ant(4′)-Ia; experiment: MIC broth microdilution, E. coli isogenic strain ant(4′)-Ia; type: cell-based; details: Table 2
Description: as §1

[5] = system: E. coli Δefflux (tolC efflux pump knocked-out); experiment: MIC broth microdilution, E. coli Δefflux strain (tolC knocked out); type: cell-based
Description: as §1

[6] = system: E. coli isogenic strain aph(3′)-II; experiment: MIC broth microdilution, E. coli isogenic strain aph(3′)-II; type: cell-based; details: for Geometric Mean MIC values, E. coli isogenic strains, aph(3′)-II: Table 2
Description: as §1

E. coli efflux parent = experiment: MIC broth microdilution, E. coli efflux parent strain; type: cell-based
Description: as §1

[7] = system: E. coli isogenic strain armA; experiment: MIC broth microdilution, E. coli isogenic strain armA; type: cell-based; details: for Geometric Mean MIC values, E. coli isogenic strains, armA: Table 2
Description: as §1

[8] = system: E. coli isogenic strain aph(3′)-Ia; experiment: MIC broth microdilution, E. coli isogenic strain aph(3′)-Ia; type: cell-based; details: for Geometric Mean MIC values, E. coli isogenic strains, aph(3′)-Ia: Table 2, aph(3′)-Ia has activity at both the 3′-hydroxy and 5″-hydroxy positions
Description: as §1

[9] = system: P. aeruginosa Δefflux (MexAB-OprM, MexCD-OprJ, MexEF-OprN knocked out); experiment: MIC broth microdilution, P. aeruginosa Δefflux strain; type: cell-based; details: Table 1, MexEF-OprN efflux pumps knocked out
Description: as §1

translation = experiment: Translation Inhibition Assay; type: biochemical; details: Table 1
From the text: Biological Example 2: Translation Inhibition Assay

P. aeruginosa ATCC 27853 = experiment: MIC broth microdilution, P. aeruginosa ATCC 27853; type: cell-based; details: Table 1; geometric mean
Description: as §1

[10] = system: P. aeruginosa efflux parent; experiment: MIC broth microdilution, P. aeruginosa efflux parent strain; type: cell-based; details: Table 1; geometric mean
Description: as §1

| SMILES | Geometric Mean MIC values, E. coli isogenic strains, empty vector [1] [µg/mL] | Geometric Mean MIC values, E. coli isogenic strains, nmpA [2] [µg/mL] | Geometric Mean MIC values, E. coli ATCC 25922 (E. coli ATCC 25922; Table 2) [µg/mL] | Geometric Mean MIC values, E. coli isogenic strains, aac(6′)-Ib [3] [µg/mL] | Geometric Mean MIC values, E. coli isogenic strains, ant(4′)-Ia [4] [µg/mL] | Geometric Mean MIC values, E. coli Δefflux ([5]; Table 2) [µg/mL] | Geometric Mean MIC values, E. coli isogenic strains, aph(3′)-II [6] [µg/mL] | Geometric Mean MIC values, E. coli efflux parent (E. coli efflux parent; Table 2) [µg/mL] | Geometric Mean MIC values, E. coli isogenic strains, armA [7] [µg/mL] | Geometric Mean MIC values, E. coli isogenic strains, aph(3′)-Ia [8] [µg/mL] | Geometric Mean MIC values, E. coli ATCC 25922 (E. coli ATCC 25922; Table 1) [µg/mL] | Geometric Mean MIC values, E. coli Δefflux ([5]; Table 1) [µg/mL] | Geometric Mean MIC values, P. aeruginosa Δefflux [9] [µg/mL] | IC50 (translation) [nM] | Geometric Mean MIC values, E. coli efflux parent (E. coli efflux parent; Table 1) [µg/mL] | Geometric Mean MIC values, P. aeruginosa ATCC 27853 (P. aeruginosa ATCC 27853) [µg/mL] | Geometric Mean MIC values, P. aeruginosa efflux parent [10] [µg/mL] | other results |
| --- | --- | --- | --- | --- | --- | --- | --- | --- | --- | --- | --- | --- | --- | --- | --- | --- | --- | --- |
| CCC(N)C1CCC(N)C(OC2C(N)CC(N)C(O)C2OC2OC(CO)C(OC3OC(CN)C(O)C(O)C3N)C2O)O1 (stereo not drawn) [drawing 861] | 1 | >64 | 1.4 | 1 | 0.5 | 1 | 0.5 | 2 | 5.7 | >64 | – | – | – | – | – | – | – | – |
| NCC1OC(OC2C(CO)OC(OC3C(O)C(N)CC(N)C3OC3OC(CN)C(O)C(F)C3N)C2O)C(N)C(O)C1O (stereo not drawn) [drawing 866] | 0.63 | >64 | 1.3 | 8 | 8 | 0.71 | 1 | 1.4 | 1.4 | >64 | – | – | – | – | – | – | – | – |
| NCC1CCC(N)C(OC2C(N)CC(N)C(O)C2OC2OC(CO)C(OC3OC(CN)C(O)C(O)C3N)C2O)O1 (stereo not drawn) [drawing 848] | – | – | – | – | – | – | – | – | – | – | 1.1 | 1.4 | 0.5 | 13 | 1.4 | 0.57 | 0.77 | – |
| CO[C@@H]1[C@@H](O[C@@H]2O[C@H](CO)[C@@H](O[C@H]3O[C@@H](CN)[C@@H](O)[C@H](O)[C@H]3N)[C@H]2O)[C@H](O[C@H]2O[C@H](CN)CC[C@H]2N)[C@@H](N)C[C@H]1N [drawing 889] | – | – | – | – | – | – | – | – | – | – | – | – | – | – | – | – | – | MIC ([1]; Escherichia coli, read-out: Geometric Mean MIC values, E. coli isogenic strains empty vector): 0.5 µg/mL (≈ 0.838 µM); MIC ([2]; Escherichia coli, read-out: Geometric Mean MIC values, E. coli isogenic strains npmA): > 32 µg/mL; MIC (E. coli ATCC 25922; Escherichia coli, ATCC25922, E. coli ATCC 25922, broth microdilution, read-out: Geometric Mean MIC values, E. coli ATCC 25922): 1 µg/mL (≈ 1.68 µM); MIC ([3]; Escherichia coli, read-out: Geometric Mean MIC values, E. coli isogenic strains aac(6′)-Ib): 8 µg/mL (≈ 13.4 µM); Geometric Mean MIC values, E. coli Δefflux ([5]; E. coli Δefflux): 0.5 µg/mL; MIC ([6]; Escherichia coli, read-out: Geometric Mean MIC values, E. coli isogenic strains aph(3′)-II): 0.5 µg/mL (≈ 0.838 µM); MIC (E. coli efflux parent; Escherichia coli, E. coli efflux parent strain, read-out: Geometric Mean MIC values, E. coli efflux parent): 0.5 µg/mL (≈ 0.838 µM); MIC ([7]; Escherichia coli, read-out: Geometric Mean MIC values, E. coli isogenic strains armA): 0.5 µg/mL (≈ 0.838 µM); MIC ([8]; Escherichia coli, read-out: Geometric Mean MIC values, E. coli isogenic strains aph(3′)-Ia): 16 µg/mL (≈ 26.8 µM) |
| CC(N)C1CCC(N)C(OC2C(N)CC(N)C(O)C2OC2OC(CO)C(OC3OC(CN)C(O)C(O)C3N)C2O)O1 (stereo not drawn) [drawing 857] | 0.84 | >64 | 1.4 | 1 | 0.71 | 0.84 | 0.71 | 1 | 1.5 | 64 | – | – | – | – | – | – | – | – |
| NCC1OC(OC2C(CO)OC(OC3C(O)C(N)CC(N)C3OC3OC(CN)C(F)(F)C(O)C3N)C2O)C(N)C(O)C1O (stereo not drawn) | 1.4 | 64 | 2 | 16 | 1 | 1 | 4 | 2 | 4 | >64 | – | – | – | – | – | – | – | – |
| NCC1OC(OC2C(CO)OC(OC3C(O)C(N)CC(N)C3OC3OC(CN)C(O)C(F)(F)C3N)C2O)C(N)C(O)C1O (stereo not drawn) [drawing 870] | 4 | >64 | 5 | >64 | 8 | 2 | 4 | 4 | 32 | >64 | – | – | – | – | – | – | – | – |
| NCC1OC(OC2C(CO)OC(OC3C(O)C(N)CC(N)C3OC3OC(CN)C(O)C(F)(F)C3N)C2O)C(N)C(O)C1O (stereo not drawn) [drawing 854] | – | – | – | – | – | – | – | – | – | – | 4 | 2 | 1 | 63 | 4 | 4 | 8 | – |
| NCC1OC(OC2C(CO)OC(OC3C(O)C(N)CC(N)C3OC3OC(C4(N)CC4)CCC3N)C2O)C(N)C(O)C1O (stereo not drawn) [drawing 859] | 0.5 | 32 | 1 | 1 | – | 1 | 1 | 1 | 4 | >32 | – | – | – | – | – | – | – | – |
| CCC(N)C1CCC(N)C(OC2C(N)CC(N)C(O)C2OC2OC(CO)C(OC3OC(CN)C(O)C(O)C3N)C2O)O1 (stereo not drawn) [drawing 852] | – | – | – | – | – | – | – | – | – | – | 1 | 1 | 0.5 | 26 | 2 | 1 | 2 | – |
| CC(N)C1CCC(N)C(OC2C(N)CC(N)C(O)C2OC2OC(CO)C(OC3OC(CN)C(O)C(O)C3N)C2O)O1 (stereo not drawn) [drawing 850] | – | – | – | – | – | – | – | – | – | – | 2.5 | 1 | 0.5 | 14 | 1 | 2 | 4 | – |
